Test results published in article PMC12114633, “α-Glucosidase Inhibition Mechanism and Anti-Hyperglycemic Effects of Flavonoids from Astragali Radix and Their Mixture Effects” (Pharmaceuticals, 2025).
Where two headings read alike, the source gives them in different places.

Tests used:
[1] = system: blood glucose; details: 50 mg/kg, cited from earlier work
[2] = system: normal C57BL/6J mice; assay: Oral sucrose test, postprandial blood glucose; format: in vivo; details: for Blood glucose levels: 30 min after sucrose 4 g/kg, n = 8, in mmol/L (unit assumed); for Rate of blood glucose reduction: vs model group, 30 min after sucrose
Excerpt: Male C57BL/6J mice of SPF grade, aged 6–8 weeks and weighing 18–22 g, were obtained from the Experimental Animal Science Department of Peking University. The mice were housed in a controlled environment with a 12:12 light/dark cycle and a constant temperature. They were provided with standard pellet feed and given free access to drinking water. To ensure acclimatization, the mice were allowed to adjust to the diet and housing conditions for one week prior to the experiment. All animal experiments were performed in compliance with the relevant laws and institutional guidelines for the care and use of laboratory animals in China. The experiments were approved by the Laboratory Animal Management and Ethics Committee of Peking University (LA2021443). Additionally, the certification number for the laboratory animal personnel is 1120111300011.
The 16 flavonoids were subsequently evaluated for their potential antihyperglycemic effects by using the oral sucrose test, which is commonly used to evaluate intestinal α-glucosidase inhibition in vivo [62]. Normal C57BL/6J mice were randomly divided into model groups and the 16 flavonoid compound groups (n = 8 per group), respectively. The flavonoids at different concentrations were suspended in 0.5% sodium carboxymethyl cellulose (CMC-Na). […] Fifteen minutes after drug administration, the mice were given a sucrose solution (4 g/kg). Blood samples were collected from the tail vein at 30 min after sucrose loading, and blood glucose levels were measured using an Accu-Chek Performa glucometer (Roche Diagnostics, SN: 79508621393, Shanghai, China). The rate of blood glucose reduction was calculated using the following Formula (4):(4) The rate of blood glucose reduction%=the model blood glucose-the sample blood glucose/the model blood glucose×100%

[3] = molecular target: T1, α-glucosidase (Saccharomyces cerevisiae, UniProt P53341); assay: CD spectroscopy, secondary structure of α-glucosidase (BeStSel); details: for β-turn: free enzyme 11.7; for β-sheet: free enzyme 28.8; for random coil: free enzyme 45.2; for α-helix: free enzyme 14.4
T1 construct: purchased Shanghai Yuanye Biotechnology Co., Shanghai, China Lot No. M23HS178879 (catalogue number not given)
T1 sequence (P53341 whole entry): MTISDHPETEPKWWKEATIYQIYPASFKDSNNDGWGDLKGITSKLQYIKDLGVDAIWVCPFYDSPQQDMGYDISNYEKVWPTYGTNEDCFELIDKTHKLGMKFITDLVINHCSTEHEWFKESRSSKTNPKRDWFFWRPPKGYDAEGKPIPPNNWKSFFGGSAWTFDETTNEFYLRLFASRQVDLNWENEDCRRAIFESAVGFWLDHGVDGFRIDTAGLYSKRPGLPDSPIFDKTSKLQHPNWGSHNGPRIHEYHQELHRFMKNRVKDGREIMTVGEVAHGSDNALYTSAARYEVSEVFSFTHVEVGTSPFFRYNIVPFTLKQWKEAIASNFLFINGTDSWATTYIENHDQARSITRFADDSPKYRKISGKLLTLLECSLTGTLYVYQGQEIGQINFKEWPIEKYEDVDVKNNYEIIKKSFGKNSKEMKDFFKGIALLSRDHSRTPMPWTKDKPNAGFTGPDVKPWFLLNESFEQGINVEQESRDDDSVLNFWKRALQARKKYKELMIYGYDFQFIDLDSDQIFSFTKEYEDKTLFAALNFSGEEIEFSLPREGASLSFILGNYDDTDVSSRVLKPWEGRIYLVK
Experimental: CD spectra in the far-UV region (190–250 nm) were scanned by using a CD spectrometer (JASCO-1.5 Tokyo, Japan). […] The slit width was set to 1 nm, and the baseline was calibrated with PBS (phosphate buffered saline). CD spectra were averaged over three scans under a constant nitrogen flow, with the buffer signal subtracted. The results were analyzed using the BeStSel database (https://bestsel.elte.hu/index.php, accessed on 16 May 2025).

[4] = molecular target: T1, α-glucosidase; assay: Mixture effects of flavonoid combinations on α-glucosidase; format: biochemical; details: calculated from the dose–response curve
Experimental: (§1) The α-glucosidase inhibitory effects of flavonoids were evaluated as in a previous report with slight modifications (including changes in the concentrations of the enzyme, substrate, and Na2CO3). Briefly, 50 μL of phosphate-buffered saline (PBS, 0.1 M, pH 6.8), the test compound, and α-glucosidase (0.2 U/mL) were preincubated in a 96-well plate at 37 °C for 10 min. The reaction was then initiated by adding 50 μL of 5 mM pNPG as the substrate. Subsequently, the 96-well plate was incubated for an additional 30 min at 37 °C, then 50 μL of 0.2 M Na2CO3 was added to terminate the reaction. Absorbance was measured at under 405 nm.
The inhibitory activity of the composition was evaluated using the same method described in Section 3.2. […] The combination index (CI, Formula (3)) was subsequently used to assess the interactions between the compounds [60].(2) Y=Bottom+Top−Bottom/1+10^^((LogIC50−X)×HillSlope)
In Formula (3), (D)j represents the concentration of component j in the mixture needed to achieve an effect of x, while (Dx)j denotes the concentration of component j required to produce the same effect when acting alone. Here, x refers to the inhibition rate produced by the composition, and n indicates the number of individual compounds in the composition.

[5] = molecular target: T1, α-glucosidase; assay: biochemical; format: binding
Experimental: SPR analysis was performed using the Biacore 8K system (GE Healthcare, Uppsala, Sweden). α-Glucosidase (0.05 mg/mL) was fixed on the CM5 sensor chip by an amine coupling kit. Subsequently, various concentrations of the 16 flavonoids dissolved in 5% DMSO were continuously injected onto the surface of α-glucosidase coated surface. After each sample injection, the sensor chip surface was washed and regenerated with running buffer (PBS) at a flow rate of 30 µL/min. According to the 1:1 Langmuir model, the equilibrium dissociation constant (KD) was calculated by the Biacore evaluation software. For sensorgrams without significant kinetic features, the KD values were calculated using the steady-state analysis.

[6] = molecular target: α-glucosidase; details: literature values, reference given; read-out: IC50 in References; cited from earlier work
[7] = molecular target: T2, Saccharomyces cerevisiae α-glucosidase (Saccharomyces cerevisiae, UniProt P53341); assay: biochemical; details: IC50, α-glucosidase 0.2 U/mL, 5 mM pNPG, PBS pH 6.8, 37 °C
T2 construct: purchased Shanghai Yuanye Biotechnology Co., Shanghai, China Lot No. M23HS178879 (catalogue number not given)
T2 sequence (P53341 whole entry): as above
Experimental: as §1

[8] = molecular target: T1, α-glucosidase; assay: Inhibitory kinetic analysis (Lineweaver–Burk plot); format: biochemical; details: Lineweaver–Burk plots, pNPG 0.31–20 mM
Experimental: The type of inhibition was determined by using the kinetics curve and the Lineweaver–Burk plot. […] These compounds were incubated with α-glucosidase at 37 °C for 30 min. After incubation, various concentrations of pNPG (0.31–20 mM) were added, and absorbance was measured at 405 nm. The Lineweaver–Burk plot was obtained by plotting 1/[S] on the x-axis and 1/v on the y-axis, where [S] represents substrate concentration and v represents the reaction velocity.

[9] = molar ratio 10:1, α-glucosidase 4 μM
[10] = molar ratio 40:1, α-glucosidase 4 μM

For `O=c1c(O)c(-c2ccc(O)c(O)c2)oc2cc(O[C@@H]3O[C@H](CO)[C@@H](O)[C@H](O)[C@H]3O)c(O)c(O)c12` [quercetagetin-7-O-glucoside], the “reduction of blood glucose” value ([1]; ref 51 (Tian et al.)) is given as 16.7%.
For `COc1ccc(-c2coc3cc(O[C@@H]4O[C@H](CO)[C@@H](O)[C@H](O)[C@H]4O)ccc3c2=O)cc1O` [C16, calycosin-7-O-glucoside], the Blood glucose levels ([2]; 10 mg/kg oral) was 15.01 ± 1.15, the “Rate of blood glucose reduction” value ([2]; 10 mg/kg oral) was 2.75% and the Blood glucose levels ([2]; 25 mg/kg oral) was 13.71 ± 0.77. For the same compound, the “Rate of blood glucose reduction” value ([2]; 25 mg/kg oral) was 11.17%, the Blood glucose levels ([2]; 50 mg/kg oral) was 12.78 ± 0.74 and the “Rate of blood glucose reduction” value ([2]; 50 mg/kg oral) was 17.25%. For the same compound, the β-turn [3, 9] was 11.7%, the β-sheet [3, 9] was 29.5% and the random coil [3, 9] was 45.6%. The β-turn [3, 10] was 11.5%, the α-helix [3, 10] was 12.1% and the β-sheet [3, 10] was 27.7%. It also gave a random coil [3, 10] of 48.6%, a α-helix ([3]; molar ratio compound:α-glucosidase 10:1, α-glucosidase 4 μM) of 13.3% and an IC05 [4] of 150.00 µM. For the same compound, the Kd [5] was 364 µM, the IC50 [6] was 174 µM and the IC50 [7] was 563 ± 43.6 µM. The “type of inhibition on α-glucosidase” value [8] was “mixed-type inhibitors”.
For `C[C@@H]1O[C@@H](OC[C@H]2O[C@@H](Oc3cc4c(O)cc(O)cc4[o+]c3-c3ccc(O)cc3)[C@H](O)[C@@H](O)[C@@H]2O)[C@H](O)[C@H](O)[C@H]1O` [pelargonidin-3-O-rutinoside], the “reduction of blood glucose” value ([1]; ref 52 (Xu et al.)) is given as 18.5%.
